Data on 1 molecule can be found in patent US20220062340A1, “IMMUNOTHERAPEUTIC METHODS AND COMPOSITIONS” (KING'S COLLEGE LONDON, priority 2018, published 2022).

One test has as its system Ex vivo expanded Tregs. The experiment in a line: IL-17 and IFNγ production under pro-inflammatory cytokine challenge (ELISA). The class given is cell-based, human. Particulars: Tregs expanded ex vivo in the presence of the agonist, FIG. 2f. How it is done:
Cytokine concentrations were measured using the Ready-SET-Go sandwich ELISA kits from eBioscience.
Ex vivo expanded Tregs were activated with CD3/CD28 beads at a 1:20 ratio and cultured at 10^6cells/m1 in X-VIVO for 5 days at 37° C./5% CO2, supplemented with the following cytokine cocktail: A) IL-2 (10 IU/mL, Proleukin); (B) IL-2, IL-1 (10 ng/mL), IL-6 (4 ng/mL) and transforming growth factor-β (TGF-β (5 ng/mL), IL-21 (25 ng/mL), IL-23 (25 ng/mL) (all R&D Systems). Supernatant IL-17 and interferon gamma (IFNγ) concentrations were measured by ELISA.
(In general: An ELISA detects its analyte on a solid surface through an enzyme-linked reagent.)

A further test relates to Tregs from CD patients. The experiment in a line: Gene array of expanded Tregs from CD patients. The format is cell-based, human. Particulars: compared to rapamycin only, n=3. As for the experimental part: Gene array analyses were carried out using Partek® software with a 1-way ANOVA to assess for differential gene expression.
1) RNA extraction was performed using Qiagen RNEasy mini/micro kits as per manufacturer's instructions. The samples were checked for RNA quality using the Agilent 2100 Bioanalyzer and quantified using the Nanodrop (ND-1000 Spectrophotometer). Samples which passed QC (RIN>8) were chosen such that input amount of each sample was 3 ng.
2) SPIA cDNA was generated using the “Ovation Pico WTA System V2” kit from Nugen, following the manufacturer's instructions.
3) The SPIA cDNA was subjected to a QC check to assess quality (Agilent 2100 Bioanalyzer) and quantity (Nanodrop ND-1000 Spectrophotometer) for the next stage.
4) The SPIA cDNA was fragmented and Biotin-labelled using the “Encore Biotin Module” from Nugen according to the manufacturer's instructions and passed through QC checks to assess fragmentation size (Agilent 2100 Bioanalyzer).
6) Hybridization cocktails were prepared of the fragmented labelled-cDNA according to Nugen's recommendations and hybridized at 45° C. overnight in an oven.
7) The arrays were washed and stained using wash protocol FS450_0002 (Affymetrix protocol recommended for Human Gene 2.0 Arrays on the GeneChip Fluidics station 450.
8) The arrays were scanned using the Affymetrix GeneChip Scanner.
Gene expression analyses were performed on Tregs from CD patients expanded in the presence of Rapa+ATRA, Rapa+RAR568 or rapamycin only (n=3 in each group). […] CD161 has previously been described as a marker of T helper (Th) 17-like Tregs^32. This was not observed in the RAR568-treated group. […] IL-18 Receptor 1 and STAT4 are responsible for Th1 lineage commitment and IFNγ production, both have been independently identified as IBD disease related polymorphisms on GWAS^33-36. CD38 has been identified as a marker associated with mature T cells, signaling reduced proliferation, but an increased ability to produce pro-inflammatory cytokines such as IFNγ^37. Ligation of GPR174 negatively affects Treg accumulation and function^38. No clear difference in transcripts for canonical pathways were identified when ATRA treated cells were compared with RAR568 treated cells.
To assess for off target RARγ effects, we compared the gene expression profiles of RAR568 and ATRA treated cells to a published dataset of RARγ target genes^39. […] Given the efficacy at inducing α4β7 and lack of off target effects, RAR568 fulfilled the target product profile for an agent that could be used for ex vivo Treg expansion for cell-based therapy purposes. Therefore, we probed this effect of RAR568 on Tregs from CD patients in functional in vitro and in vivo trafficking assays.

Test [1] concerns human foetal small bowel xenografts. Briefly: C.B-17 SCID mouse human intestinal xenotransplant model, Treg trafficking. The class given is in vivo. How it is done: Mice are injected with anti-asialo GM1 antibody at day −2 prior to transfer in order to deplete natural killer (NK) cells. On the day of Treg transfer, mice were treated with Tregs that were either expanded with Rapamycin alone or with the addition of RAR568. Mice also received 1000IU of rhlL-2 IP on the day of Treg transfer, to support the Treg in circulation. After three days in circulation, the presence of CFSE labelled Tregs was assessed by FACS in digested xenograft samples and immunofluoresence on frozen sections. […] Induction of α4β7 is functionally relevant in vivo (e) Control XG, no Tregs, (f) XG from mouse treated with Rapa Tregs (g) XG from mouse treated with Rapa+RAR568 Tregs.
The C.B-17 SCID mouse human intestinal xenograft model has been previously described^28,29. Institutional Review Board (IRB) and Institutional Animal Care and Use Committee (IACUC) approvals were obtained prospectively (Ethics Committee for Animal Experimentation, Hebrew University of Jerusalem; MD-11-12692-4 and the Helsinki Committee of the Hadassah University Hospital; 81-23/04/04). Tregs were labelled with CFSE (Invitrogen) prior to transfer, as per manufacturer's instructions. Xenografts were processed as per LPMC digestion protocol. CFSE positive cells were detected by flow cytometry. Additionally, CFSE positive cells were detected by immunofluorescence on frozen sections from treated xenografts.
Fresh xenograft sections were fixed and stored in OCT. Fixed cryostat sections were blocked with 20% fetal calf serum (FCS) and stained with rat anti human CD45 (Invitrogen) and mouse antihuman FOXP3 (Biolegend), followed by donkey anti-rat AF594 (Invitrogen) and donkey anti-mouse NL637 (RnD Systems).
To assess if the induction of α4β7 was functionally relevant in vivo, cells treated with RAR568 or cells expanded under standard conditions were fluorescently labelled and transferred into a SCID mouse xenografted with human fetal intestinal small bowel by intra-venous injection. Inflammation was induced in the xenografts with Mycobactrium Avium Paratuberculosis (MAP). […]

The test system of test [2] is integrin α4β7 on Treg surface. Briefly: Induction of integrin α4β7 on bulk Treg surface by RARα agonists (FIG. 6). The format is cell-based. The conditions noted are these: bulk CD4+CD25+CD127− Tregs, 12 days stimulation, reducing agonist concentrations. As for the experimental part:
Bulk Tregs (CD4+CD25+CD127−) Tregs (50,000 per well) were expanded in vitro with reducing concentrations of the agonists. Culture conditions: 2 aCD3/aCD28 beads/cell, 1000IU/mL IL-2, 0.1 nM Rapamycin+Agonist in X-vivo 15. Following 12 days stimulation, cells were stained for CD4, CD25, CD127, FOXP3, Integrin a4, Integrin b7, CD15s, CD161 and acquired on a BD symphony flow cytometer. Data was analysed in Flowjo and Prism.

SMILES strings stand for the structures.

Take `CCOc1c(Cl)cc(C(=O)Nc2ccc(C(=O)O)c(C)c2)cc1OC(C)C` [RAR568]: in the test with Ex vivo expanded Tregs, the “IFNγ production following pro-inflammatory cytokine challenge” value is reported as “did not produce” and the “IL-17 production following pro-inflammatory cytokine challenge” value is “did not produce”. Moreover, the “transcripts for CD161” value in the test on Tregs from CD patients is “not observed”. Further, the “Treg trafficking to xenografts” value in test [1] (72 hours following i.v. transfer of agonist-treated Tregs, compared to Tregs expanded under standard conditions) is listed as “significantly more likely to traffic to xenografts”. For the same molecule, in test [1] (MAP-induced inflammation, agonist-treated Tregs vs standard conditions), the “Treg trafficking to inflamed xenografts” value was “significantly more RAR568-treated cells trafficked to the inflamed xenografts”. Also, in test [1] (immunofluorescence, FIG. 5g), the “presence of CFSE labelled FOXP3+ Tregs in cryosections from inflamed xenografts” value is reported as “evident”. Further, the “induction of integrin α4β7 on Treg surface” value in test [2] was “comparable effects”.
